# *1 amine or outer side, *2 acyl side, *3 side chain or, on linkers, in order; H or OH if unused. Where a SMILES comes first, the peptide text is derived from it. Bridges are numbered along the chain shown (N, C = ends). Roman numbers before positions name the chains, in order. [ ]: non-standard residue; d: D form. Actinocin(9to1) = Cc1c2oc3c(C)ccc(C(=O)[*:1])c3nc-2c(C(=O)[*:2])c(N)c1=O; NMeV = CN[C@H](C(=O)O)C(C)C; Sar = CNCC(=O)O
# Key:
# Strain G393-B445 = assay: Antibiotic sensitivity, paper disc-agar diffusion method; assay type: cell-based, Empedobacter sp.; set-up: key: S (sensitive); R (resistant); I (intermediate); settings: nutrient agar, 2 day's incubation at 28° C., Difco discs, amount/disc per antibiotic
# E. coli NIHJ = assay: as above; assay type: cell-based; set-up: key: S (sensitive); R (resistant); I (intermediate); settings: nutrient agar, 2 day's incubation at 28° C., Difco discs, amount/disc per antibiotic
# S. aureus 209P = assay: as above; assay type: cell-based; set-up: key: S (sensitive); R (resistant); I (intermediate); settings: nutrient agar, 2 day's incubation at 28° C., Difco discs, amount/disc per antibiotic
# [1] = test system: Staphylococcus aureus BX-1633; assay: MIC, serial two-fold dilution method (aerobic); assay type: cell-based; settings: BX1633; Staphylococcus aureus BX-1633; Mueller-Hinton agar; inoculum 10^4; read-out: minimum inhibitory concentration (MIC)
# [2] = test system: Staphylococcus aureus 209P; assay: MIC, serial two-fold dilution method (aerobic); assay type: cell-based; settings: Staphylococcus aureus 209P; Mueller-Hinton agar; inoculum 10^4; read-out: minimum inhibitory concentration (MIC)
# [3] = test system: Staphylococcus aureus A20239; assay: MIC, serial two-fold dilution method (aerobic); assay type: cell-based; settings: Staphylococcus aureus A20239; Mueller-Hinton agar; inoculum 10^4; read-out: minimum inhibitory concentration (MIC)
# [4] = test system: Staphylococcus aureus A9601; assay: MIC, serial two-fold dilution method (aerobic); assay type: cell-based; settings: Staphylococcus aureus A9601; Mueller-Hinton agar; inoculum 10^4; read-out: minimum inhibitory concentration (MIC)
# Proteus mirabilis A9554 = assay: MIC, serial two-fold dilution method (aerobic); assay type: cell-based; settings: Proteus mirabilis A9554; Mueller-Hinton agar; inoculum 10^4; read-out: minimum inhibitory concentration (MIC)
# Micrococcus flavus D-12 = assay: MIC, serial two-fold dilution method (aerobic); assay type: cell-based; settings: D12; Micrococcus flavus D-12; Mueller-Hinton agar; inoculum 10^4; read-out: minimum inhibitory concentration (MIC)
# [5] = test system: Bacillus anthracis IID-115; assay: microbe, parasite or virus in culture; assay type: cell-based; settings: Bacillus anthracis, IID115, read-out: minimum inhibitory concentration (MIC)
# Sarcina lutea PCI-1001 = assay: MIC, serial two-fold dilution method (aerobic); assay type: cell-based; settings: Micrococcus luteus, PCI1001; Sarcina lutea PCI-1001; Mueller-Hinton agar; inoculum 10^4; read-out: minimum inhibitory concentration (MIC)
# [6] = test system: Staphylococcus aureus Smith; assay: MIC, serial two-fold dilution method (aerobic); assay type: cell-based; settings: Staphylococcus aureus Smith; Mueller-Hinton agar; inoculum 10^4; read-out: minimum inhibitory concentration (MIC)
# [7] = test system: Staphylococcus aureus A20701; assay: MIC, serial two-fold dilution method (aerobic); assay type: cell-based; settings: Staphylococcus aureus A20701; Mueller-Hinton agar; inoculum 10^4; read-out: minimum inhibitory concentration (MIC)
# [8] = test system: Staphylococcus aureus A9748; assay: MIC, serial two-fold dilution method (aerobic); assay type: cell-based; settings: Staphylococcus aureus A9748; Mueller-Hinton agar; inoculum 10^4; read-out: minimum inhibitory concentration (MIC)
# [9] = test system: Staphylococcus aureus #193; assay: MIC, serial two-fold dilution method (aerobic); assay type: cell-based; settings: Staphylococcus aureus #193; Mueller-Hinton agar; inoculum 10^4; read-out: minimum inhibitory concentration (MIC)
# [10] = test system: Bacillus subtilis ATCC 6633; assay: MIC, serial two-fold dilution method (aerobic); assay type: cell-based; settings: ATCC6633; Bacillus subtilis ATCC 6633; Mueller-Hinton agar; inoculum 10^4; read-out: minimum inhibitory concentration (MIC)
# Proteus vulgaris A9436 = assay: MIC, serial two-fold dilution method (aerobic); assay type: cell-based; settings: Proteus vulgaris A9436; Mueller-Hinton agar; inoculum 10^4; read-out: minimum inhibitory concentration (MIC)
# [11] = test system: Staphylococcus aureus A20610; assay: MIC, serial two-fold dilution method (aerobic); assay type: cell-based; settings: Staphylococcus aureus A20610; Mueller-Hinton agar; inoculum 10^4; read-out: minimum inhibitory concentration (MIC)
# [12] = test system: Klebsiella pneumoniae D-11; assay: MIC, serial two-fold dilution method (aerobic); assay type: cell-based; settings: D11; Klebsiella pneumoniae D-11; Mueller-Hinton agar; inoculum 10^4; read-out: minimum inhibitory concentration (MIC)
# [13] = test system: Pseudomonas aeruginosa D-113; assay: MIC, serial two-fold dilution method (aerobic); assay type: cell-based; settings: D113; Pseudomonas aeruginosa D-113; Mueller-Hinton agar; inoculum 10^4; read-out: minimum inhibitory concentration (MIC)
# [14] = test system: Staphylococcus aureus A20394; assay: MIC, serial two-fold dilution method (aerobic); assay type: cell-based; settings: Staphylococcus aureus A20394; Mueller-Hinton agar; inoculum 10^4; read-out: minimum inhibitory concentration (MIC)
# [15] = test system: Staphylococcus aureus A22421; assay: MIC, serial two-fold dilution method (aerobic); assay type: cell-based; settings: Staphylococcus aureus A22421; Mueller-Hinton agar; inoculum 10^4; read-out: minimum inhibitory concentration (MIC)
# Escherichia coli NIHJ = assay: MIC, serial two-fold dilution method (aerobic); assay type: cell-based; settings: Escherichia coli NIHJ; Mueller-Hinton agar; inoculum 10^4; read-out: minimum inhibitory concentration (MIC)
# [16] = test system: Staphylococcus aureus A9856; assay: MIC, serial two-fold dilution method (aerobic); assay type: cell-based; settings: Staphylococcus aureus A9856; Mueller-Hinton agar; inoculum 10^4; read-out: minimum inhibitory concentration (MIC)
compound,measurement,setting,value
CC1(C)S[C@@H]2[C@H](NC(=O)Cc3ccccc3)C(=O)N2[C@H]1C(=O)O [Pencillin G],Sensitivity Strain G393-B445,Strain G393-B445,S
same,Sensitivity E. coli NIHJ,E. coli NIHJ,I
same,Sensitivity S. aureus 209P,S. aureus 209P,S
NC[C@H]1O[C@H](O[C@H]2[C@H](O)[C@@H](O[C@H]3O[C@H](CO)[C@@H](O)[C@H](N)[C@H]3O)[C@H](N)C[C@@H]2N)[C@H](O)[C@@H](O)[C@@H]1O [Kanamycin],MIC,[1],0.8 µg/mL
same,MIC,[2],0.4 µg/mL
same,MIC,[3],> 100 µg/mL
same,MIC,[4],0.4 µg/mL
same,MIC,Proteus mirabilis A9554,0.4 µg/mL
same,MIC,Micrococcus flavus D-12,3.1 µg/mL
same,MIC,[5],0.4 µg/mL
same,MIC,Sarcina lutea PCI-1001,3.1 µg/mL
same,MIC,[6],0.4 µg/mL
same,MIC,[7],100 µg/mL
same,MIC,[8],1.6 µg/mL
same,MIC,[9],0.8 µg/mL
same,MIC,[10],0.2 µg/mL
same,MIC,Proteus vulgaris A9436,0.4 µg/mL
same,MIC,[11],100 µg/mL
same,MIC,[12],0.2 µg/mL
same,MIC,[13],> 100 µg/mL
same,MIC,[14],0.8 µg/mL
same,MIC,[15],> 100 µg/mL
same,MIC,Escherichia coli NIHJ,0.8 µg/mL
same,MIC,[16],0.8 µg/mL
Polymyxin B,Sensitivity Strain G393-B445,Strain G393-B445,R
same,Sensitivity E. coli NIHJ,E. coli NIHJ,R
same,Sensitivity S. aureus 209P,S. aureus 209P,R
"Cc1c2oc3c(C)ccc(C(=O)N[C@@H]4C(=O)N[C@H](C(C)C)C(=O)N5CCC[C@H]5C(=O)N(C)CC(=O)N(C)[C@@H](C(C)C)C(=O)O[C@@H]4C)c3nc-2c(C(=O)N[C@@H]2C(=O)N[C@H](C(C)C)C(=O)N3CCC[C@H]3C(=O)N(C)CC(=O)N(C)[C@@H](C(C)C)C(=O)O[C@@H]2C)c(N)c1=O [Actinomycin D] (I: T[dV]P[Sar][NMeV] / II: T[dV]P[Sar][NMeV]; ester I:1-I:C, II:1-II:C; linker I:N-II:N via Actinocin(9to1))",Sensitivity Strain G393-B445,Strain G393-B445,I
same,Sensitivity E. coli NIHJ,E. coli NIHJ,R
same,Sensitivity S. aureus 209P,S. aureus 209P,S
CN(C)[C@@H]1C(O)=C(C(N)=O)C(=O)[C@@]2(O)C(O)=C3C(=O)c4c(O)cccc4[C@@](C)(O)[C@H]3C[C@@H]12 [Tetracycline],Sensitivity Strain G393-B445,Strain G393-B445,S
same,Sensitivity E. coli NIHJ,E. coli NIHJ,S
same,Sensitivity S. aureus 209P,S. aureus 209P,S
[H]/N=C(/N)N[C@H]1[C@H](O)[C@@H](O)[C@H](O[C@@H]2O[C@@H](C)[C@](O)(C=O)[C@H]2O[C@@H]2O[C@@H](CO)[C@H](O)[C@@H](O)[C@@H]2NC)[C@@H](N/C(N)=N\[H])[C@@H]1O [Streptomycin],Sensitivity Strain G393-B445,Strain G393-B445,S
same,Sensitivity E. coli NIHJ,E. coli NIHJ,I
same,Sensitivity S. aureus 209P,S. aureus 209P,I
